Tests used:
E. coli K12 MG1655 = assay: Microfluidic 3D culture matrix concentration-gradient antibiotic susceptibility test (CELLDIRECTOR Ruby); format: cell-based, Escherichia coli; conditions: E. coli K12 MG1655 in agarose 3D culture matrix; gradient ampicillin 20-0 μg/ml or spectinomycin 50-0 μg/ml
Experimental: Bacterium strain E. coli K12 MG1655 was cultured on a Luria broth (LB) plate. The E. coli cells were diluted by phosphate buffered saline (PBS) to OD600=0.1 as measured by a MULTISKAN® FC Microplate Photometer (Thermo Scientific). Same volumes of PBS with OD600=0.1 cells and low-melting temperature agarose were mixed together. A pipette with white tips was used to suck up 8 μl of the mixture and inject the mixture into the culture chamber of a microfluidic device CELLDIRECTOR® Ruby (Gradientech AB), see upper panel in FIG. 20. The fluid channel inputs of the microfluidic device were connected to fluid reservoirs comprising Muelle-Hinton medium and where one of the reservoirs also contained 20 μg/ml ampicillin. The speed of a pusher used to draw the medium into the fluid channels was set to 5 μl/min for 30 minutes and then to 2 μl/min for the rest of the time. […]
The pictures were cut to match a selected central portion of the culture chamber, see black box in FIGS. 17A and 18A. Image processing software was used to extract detected light intensity data from the pictures. A spatial growth situation distribution diagram was used to summarize the grey-scale values, i.e. detected light intensity values, of all the lines that are perpendicular to the direction of the gradient as the Y-axis with the concentration gradient as the X-axis. […]

[1] = in agarose matrix; cited from earlier work

Compound | resistance of the microorganism to the test substance, from width of the border zone (E. coli K12 MG1655) | diffusion constant D [1]
CC1(C)S[C@@H]2[C@H](NC(=O)[C@H](N)c3ccccc3)C(=O)N2[C@H]1C(=O)O [ampicillin] | no corresponding ampicillin resistance was detected | 0.016 cm^2/h
CN[C@@H]1[C@H](O)[C@H](NC)[C@H]2O[C@@]3(O)C(=O)C[C@@H](C)O[C@H]3O[C@@H]2[C@H]1O [spectinomycin] | presence of spectinomycin resistance | –

Reference: patent US10487349B2, “Use of a fluidic device” (GRADIENTECH AB, priority 2013, dated 2019)
